Source: patent publication US20250170130A1, “MODULATORS OF MYC FAMILY PROTO-ONCOGENE PROTEIN” (Nalo Therapeutics, priority 2022, published 2025)

Columns and labels:
[1] = target: T1, MycC (Homo sapiens, UniProt P01106); assay: Degradation of MycC protein in L363 cells, JESS/Western blot of lysates; assay type: cell-based; conditions: L-363, 24 h, L-363 cells, 24 h; for Dmax at 3 µM: read-out: % Degradation of MycC (L-363) 24 h, 3 μM; for Dmax at 6 µM: read-out: % Degradation of MycC (L-363) 24 h, 6 μM; for Dmax at 1 µM: read-out: % Degradation of MycC (L-363) 24 h, 1 μM
T1 construct: endogenous in cells; host or cells: L363
Method in brief: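 L363 suspension cells were seeded at 1E6 cells per well and exposed to compound (stock 10 mM in DMSO) for 24 hrs. Cells were collected, spun down, rinsed with PBS, lysed in RIPA buffer cocktail on ice, clarified and kept at −80 degrees. Lysate protein was quantified by BCA, and c-myc was measured on JESS by chemiluminescence with tubulin and GAPDH loading controls in the NIR channel.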

[2] = target: T2, MycN (Homo sapiens, UniProt P04198); assay: Degradation of MycN protein in SK-N-BE(2) cells, JESS/Western blot of lysates; assay type: cell-based; conditions: SKNBE2, 24 h, SKNBE2 cells, 24 h; for Dmax at 0.5 µM: read-out: % Degradation of MycN (SKNBE2) 24 h, 0.5 μM; for Dmax at 1 µM: read-out: % Degradation of MycN (SKNBE2) 24 h, 1 μM; for Dmax at 3 µM: read-out: % Degradation of MycN (SKNBE2) 24 h, 3 μM; for Dmax at 6 µM: read-out: % Degradation of MycN (SKNBE2) 24 h, 6 μM
T2 construct: endogenous in cells; host or cells: SK-N-BE(2)
T2 sequence (P04198 1-464): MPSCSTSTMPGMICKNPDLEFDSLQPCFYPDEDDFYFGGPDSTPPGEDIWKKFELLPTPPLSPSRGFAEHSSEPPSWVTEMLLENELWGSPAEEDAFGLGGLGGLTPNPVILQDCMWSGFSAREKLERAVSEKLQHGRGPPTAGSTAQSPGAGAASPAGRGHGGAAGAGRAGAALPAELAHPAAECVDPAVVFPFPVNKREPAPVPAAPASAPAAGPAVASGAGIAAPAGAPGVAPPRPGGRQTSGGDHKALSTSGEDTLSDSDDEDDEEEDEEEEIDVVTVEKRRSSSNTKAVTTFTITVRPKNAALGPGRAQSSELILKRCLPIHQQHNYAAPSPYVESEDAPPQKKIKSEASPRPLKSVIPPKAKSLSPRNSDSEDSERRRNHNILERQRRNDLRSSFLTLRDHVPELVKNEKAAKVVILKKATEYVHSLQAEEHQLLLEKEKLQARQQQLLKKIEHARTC
Method in brief: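 SK-N-BE(2) adherent cells (5E5 per well of a 6 well dish) were grown 24 hrs, then exposed to compounds diluted 1 in 20 in media, with DMSO controls, for 24 hrs. Cells were scraped, pelleted, PBS washed and lysed in RIPA buffer cocktail; after BCA protein quantitation, n-myc was detected by chemiluminescence on JESS/Western blot with tubulin and GAPDH loading controls read in the near infra red channel.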

T1 sequence (P01106 whole entry): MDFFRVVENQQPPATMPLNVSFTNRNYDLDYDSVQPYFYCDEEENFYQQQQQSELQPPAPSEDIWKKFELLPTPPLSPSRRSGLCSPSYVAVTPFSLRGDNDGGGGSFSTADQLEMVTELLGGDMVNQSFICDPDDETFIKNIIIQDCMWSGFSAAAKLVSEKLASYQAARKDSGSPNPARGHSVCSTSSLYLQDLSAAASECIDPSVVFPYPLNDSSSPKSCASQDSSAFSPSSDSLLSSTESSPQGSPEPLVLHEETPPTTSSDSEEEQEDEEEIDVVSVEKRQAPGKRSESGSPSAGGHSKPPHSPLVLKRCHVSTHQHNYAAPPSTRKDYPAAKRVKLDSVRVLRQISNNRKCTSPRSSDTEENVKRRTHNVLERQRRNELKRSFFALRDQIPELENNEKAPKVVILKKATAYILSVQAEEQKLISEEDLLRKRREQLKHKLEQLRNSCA

Row | SMILES | Dmax at 3 µM [1] [%] | Dmax at 6 µM [1] [%] | Dmax at 0.5 µM [2] [%] | Dmax at 1 µM [2] [%] | Dmax at 3 µM [2] [%] | Dmax at 6 µM [2] [%] | Dmax at 0.5 µM ([1]; 0.5 μM, read-out: % Degradation of MycC (L-363) 24 h, 0.5 μM) [%] | Dmax at 1 µM [1] [%]
1 | CNCC12CC(C1)N(c1nc3c(c(Nc4cc(C5CCCC5)[nH]n4)n1)CCC3)C2 [Compound 183, N-(5-Cyclopentyl-1H-pyrazol-3-yl)-2-[4-(methylaminomethyl)-2-azabicyclo[2.1.1]hexan-2-yl]-6,7-dihydro-5H-cyclopenta[d]pyrimidin-4-amine] | 80 to 100 | 80 to 100 | 20 to 49 | 50 to 79 | 80 to 100 | 80 to 100 | – | –
2 | NC[C@H]1CN(c2nccc(Nc3cc(C4CCCC4)[nH]n3)n2)CCO1 [Compound 187, 2-[(2S)-2-(Aminomethyl)morpholin-4-yl]-N-(5-cyclopentyl-1H-pyrazol-3-yl)pyrimidin-4-amine] | 20 to 49 | 50 to 79 | 20 to 49 | 20 to 49 | 20 to 49 | 50 to 79 | < 20 | 20 to 49
3 | CNC[C@H]1CN(c2nccc(Nc3cc(C4CC4)[nH]n3)n2)C[C@H]1F [Compound 191, N-(5-Cyclopropyl-1H-pyrazol-3-yl)-2-[(3S,4S)-3-fluoro-4-(methylaminomethyl)pyrrolidin-1-yl]pyrimidin-4-amine] | 50 to 79 | 80 to 100 | < 20 | 20 to 49 | 80 to 100 | 80 to 100 | – | < 20
